According to patent EP1935887A1, “Heterocyclic substituted carbonyl derivatives and their use as dopamine D3 receptor ligands” (Aventis Pharmaceuticals Inc., priority 2001, dated 2002):

Target: T1, Cloned Human Dopamine D3 Receptors (Homo sapiens, UniProt P35462)
T1 construct: expressed in transfected cells; membrane homogenate
Test: [N-Methyl-3H]Spiroperidol binding to cloned human dopamine D3 receptors
Settings: D3 Ki (nM)
Summary of the method: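 Membranes from CHO cells stably expressing human D3 receptor, homogenised in 10% DMSO and stored at -80°C. Binding uses [N-methyl-3H]spiroperidol in Tris buffer, pH 7.7.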

T1 sequence (P35462 whole entry): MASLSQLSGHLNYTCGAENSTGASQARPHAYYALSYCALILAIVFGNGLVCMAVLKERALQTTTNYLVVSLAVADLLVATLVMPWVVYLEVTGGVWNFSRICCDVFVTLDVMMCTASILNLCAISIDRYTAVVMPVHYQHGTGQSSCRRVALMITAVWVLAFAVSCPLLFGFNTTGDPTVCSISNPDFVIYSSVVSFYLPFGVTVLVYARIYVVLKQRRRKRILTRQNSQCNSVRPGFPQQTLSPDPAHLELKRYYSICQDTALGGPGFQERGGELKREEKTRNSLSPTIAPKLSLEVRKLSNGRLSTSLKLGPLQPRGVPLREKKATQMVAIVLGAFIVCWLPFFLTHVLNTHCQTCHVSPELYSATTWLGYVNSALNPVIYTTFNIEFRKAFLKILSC

O=C(NC1CCN(Cc2ccc(C(F)(F)F)cc2)CC1)C1CC1CN1CCC(c2noc3ccsc23)CC1 (centres unmarked) [compound 832349] and O=C(NC1CCN(Cc2cccc(F)c2)CC1)[C@@H]1C[C@H]1CN1CCC(c2noc3ccsc23)CC1 [compound 832727] are within 1.5-fold of each other in Ki: 0.843 nM for the first, 1.19 nM for the second.

O=C(C1CC1CN1CCC(c2noc3ccsc23)CC1)N1CCC(Nc2ccc(Cl)cc2)CC1 (centres unmarked) [compound 832395] and O=C([C@@H]1C[C@H]1CN1CCC(c2noc3ccsc23)CC1)N1CCN(Cc2ccc(Cl)cc2)CC1 [compound 833128] are within 1.5-fold of each other in Ki: 30.2 nM for the first, 28.7 nM for the second.

Going from Cn1nc(C2CCN(C[C@@H]3C[C@H]3C(=O)NCCCN3CCCCC3)CC2)c2cccc(C(F)(F)F)c21 [compound 833090] to Cn1nc(C2CCN(C[C@@H]3C[C@H]3C(=O)N[C@H]3CC[C@H](C)CC3)CC2)c2cc(C(F)(F)F)ccc21 [compound 833769], the Ki falls from 41.8 nM to 1.63 nM (26-fold). The second binds more tightly here.

In the case of O=C(NC1CCN(C(=O)Nc2ccc(F)cc2)CC1)[C@@H]1C[C@H]1CN1CCC(c2noc3ccsc23)CC1 [compound 833715], the Ki is reported as 5.7 nM.

Same assay, conditions: read-out: D3 Ki

Compared with O=C(NC1CCNCC1)[C@@H]1C[C@H]1CN1CCN(c2csc3cc(C(F)(F)F)ccc23)CC1 [compound 832502], O=C(NC1CCN(CC2CC2)CC1)[C@@H]1C[C@H]1CN1CCN(c2csc3cc(C(F)(F)F)ccc23)CC1 [compound 832734] is 3.7-fold higher in Ki: 2.67 nM for the first, 9.85 nM for the second. The first binds more tightly here.

Compared with Cn1nc(C2CCN(C[C@@H]3C[C@H]3C(=O)NCCCn3ccnc3)CC2)c2cccc(C(F)(F)F)c21 [compound 832654, 2R-[4-(1-Methyl-7-trifluoromethyl-1 H-indazol-3-yl)-piperidin-1-ylmethyl]-1 R-cycloproanecarboxylic acid (3-imidazol-1-yl-propyl)-amide], Cn1nc(C2CCN(C[C@@H]3C[C@H]3C(=O)N[C@H]3CC[C@H](C)CC3)CC2)c2cccc(C(F)(F)F)c21 [compound 833305] is 1.9-fold higher in Ki: 4.72 nM for the first, 8.81 nM for the second. The first binds more tightly here.

O=C(NC1CCN(Cc2cccc(F)c2)CC1)[C@@H]1C[C@H]1CN1CCN(c2csc3cc(C(F)(F)F)ccc23)CC1 [compound 832736] and O=C(NC1CCN(Cc2ccc(F)cc2)CC1)[C@@H]1C[C@H]1CN1CCN(c2csc3cc(C(F)(F)F)ccc23)CC1 [compound 832738] are within 1.5-fold of each other in Ki: 2.74 nM for the first, 3.26 nM for the second.

COc1ccc2c(c1)c(N1CCN(C[C@@H]3C[C@H]3C(=O)NCCCN3CCN(C)CC3)CC1)nn2C [compound 833121] and COc1ccc2c(c1)c(N1CCN(C[C@@H]3C[C@H]3C(=O)NCCCN(C)C)CC1)nn2C [compound 833631] are within 1.5-fold of each other in Ki: 26.5 nM for the first, 31.3 nM for the second.

Going from O=C(NC1CCN(Cc2ccc(F)c(F)c2)CC1)[C@@H]1C[C@H]1CN1CCC(c2noc3ccsc23)CC1 [compound 833165] to C[C@H]1CC[C@H](NC(=O)[C@@H]2C[C@H]2CN2CCC(c3nc4cc(Cl)ccc4o3)CC2)CC1 [compound 833692], the Ki rises from 1.07 nM to 72.9 nM (68-fold).

First: CC(C)(C)OC(=O)N1CCC(CNC(=O)C2CC2CN2CCN(c3csc4cc(C(F)(F)F)ccc34)CC2)C1 (centres unmarked) [compound 833625]
Second: COc1ccc2c(c1)c(N1CCN(C[C@@H]3C[C@H]3C(=O)NC[C@H]3CCN(C(=O)OC(C)(C)C)C3)CC1)nn2C [compound 833630]
The Ki of the first is 2.3-fold lower: 22.2 nM for the first, 52.1 nM for the second. The first binds more tightly here.

Compared with COc1ccc2c(c1)c(N1CCN(C[C@@H]3C[C@H]3C(=O)N3CCC(CCN4CCCC4)CC3)CC1)nn2C [compound 833628], O=C(NCCCn1ccnc1)[C@@H]1C[C@H]1CN1CCN(c2csc3ncccc23)CC1 [compound 833821, 2R-(4-Thieno[2,3-b]pyridin-3-yl-piperazin-1-ylmethyl)-1R-cyclopropanecarboxylic acid (3-imidazol-1-yl-propyl)-amide] is 14-fold lower in Ki: 95.8 nM for the first, 6.91 nM for the second. The second binds more tightly here.

With C[C@H]1CC[C@H](NC(=O)[C@@H]2C[C@H]2CN2CCC(c3csc4c(C(F)(F)F)cccc34)CC2)CC1 [compound 833690, 2R-[4-(7-Trifluoromethyl-benzo[b]thiophen-3-yl)-piperidin-1-ylmethyl]-1R-cyclopropanecarboxylic acid (trans-4-methyl-cyclohexyl)-amide] the Ki was 7.97 nM.

Same assay, conditions: the 16th table; read-out: D3 Ki

COc1c(F)ccc2c(C3CCN(CCC4(C(=O)N[C@H]5CC[C@H](C)CC5)CC4)CC3)noc12 [compound 833330] showed a Ki of 72.7 nM.
